Here are results for 20 molecules from PubChem BioAssay AID330 (DTP/NCI, 2004).

For the experiment, the system named is P388 leukemia ip, CD2F1 mice, survival T/C. Nature of the experiment: NCI In Vivo Anticancer Drug Screen. Data for tumor model P388 Leukemia (intraperitoneal) in CD2F1 (CDF1) mice. To be noted: endpoint: median survival time, higher = longer survival. In short, it runs like this:
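Mice carrying the transplanted tumor received test compound or vehicle. Survival was recorded in each group, and the value is the treated-group measurement divided by that of the vehicle-treated control group.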

Where [1] appears, read: dose: 100.0 mg/kg/injection, schedule: Q04DX002 (ip), vehicle: saline with Tween-80.
Setting [2] is: dose: 200.0 mg/kg/injection, schedule: Q04DX002 (ip), vehicle: saline with Tween-80.
The mark [3] stands for this setting: dose: 50.0 mg/kg/injection, schedule: Q01DX009 (ip), vehicle: Klucel (hydroxypropylcellulose) (HPC).
Setting [4] is: dose: 50.0 mg/kg/injection, schedule: Q01DX009 (ip), vehicle: saline.
[5] abbreviates: dose: 100.0 mg/kg/injection, schedule: Q01DX009 (ip), vehicle: Klucel (hydroxypropylcellulose) (HPC).
Setting [6] is: dose: 100.0 mg/kg/injection, schedule: Q01DX009 (ip), vehicle: saline.
Where [7] appears, read: dose: 200.0 mg/kg/injection, schedule: Q01DX009 (ip), vehicle: Klucel (hydroxypropylcellulose) (HPC).
Setting [8] is: dose: 200.0 mg/kg/injection, schedule: Q01DX009 (ip), vehicle: saline.
Where [9] appears, read: dose: 25.0 mg/kg/injection, schedule: Q01DX005 (ip), vehicle: Klucel (hydroxypropylcellulose) (HPC).
Where [10] appears, read: dose: 50.0 mg/kg/injection, schedule: Q01DX005 (ip), vehicle: Klucel (hydroxypropylcellulose) (HPC).
[11] abbreviates: dose: 100.0 mg/kg/injection, schedule: Q01DX005 (ip), vehicle: Klucel (hydroxypropylcellulose) (HPC).
Setting [12] is: dose: 200.0 mg/kg/injection, schedule: Q01DX005 (ip), vehicle: Klucel (hydroxypropylcellulose) (HPC).

The structures appear in SMILES notation. Values joined by “and” are separate entries in the source; they are usually repeats but may differ in a detail not shown here. Identical values can stand only once. Toxic doses and inconclusive results are not listed.

For `COc1cc(OC2OC(CO)C(O)C(O)C2O)ccc1/C=C\C(=O)c1ccc(O)cc1` (centres undefined), the T/C under setting [1] is 96 % of control; the T/C under setting [2] is 90 % of control; the T/C (dose: 400.0 mg/kg/injection, schedule: Q04DX002 (ip), vehicle: saline with Tween-80) is 91 % of control.

Turning to `CCC[CH2][Sn]1([CH2]CCC)[O]OC(c2ccccc2)[O]1` (centres undefined), the T/C (dose: 4.5 mg/kg/injection, schedule: Q01DX009 (ip), vehicle: other) was 150 % of control; the T/C (dose: 625.0 micrograms/kg/injection, schedule: Q04DX003 (ip), vehicle: saline with Tween-80) was 115 % of control; the T/C (dose: 1250.0 micrograms/kg/injection, schedule: Q04DX003 (ip), vehicle: saline with Tween-80) was 120 % of control; the T/C (dose: 5000.0 micrograms/kg/injection, schedule: Q04DX003 (ip), vehicle: saline with Tween-80) is 165 % of control.

`ClC1=C(Cl)C2(Cl)C3C4CC(C5OC45)C3N1C2(Cl)Cl` (centres undefined): the T/C runs as follows: (dose: 100.0 mg/kg/injection, schedule: Q01DX001 (ip), vehicle: saline with Tween-80) 109 % of control; (dose: 200.0 mg/kg/injection, schedule: Q01DX001 (ip), vehicle: saline with Tween-80) 103 % of control.

Regarding `Nc1nnc2cc(F)ccc2n1`, the T/C by setting is: under setting [3], 104 % of control; under setting [4], 123 % of control; under setting [5], 108 % of control; under setting [6], 108 % of control; under setting [7], 98 % of control; under setting [8], 113 % of control.

For `CCOC(=O)NOP(=O)(N1CC1)N1CC1`, the T/C was 109 % of control and 124 % of control (dose: 12.5 mg/kg/injection, schedule: Q01DX001 (ip), vehicle: saline + alcohol); 111 % of control (dose: 25.0 mg/kg/injection, schedule: Q01DX001 (ip), vehicle: saline + alcohol); 238 % of control (dose: 100.0 mg/kg/injection, schedule: Q01DX001 (ip), vehicle: saline + alcohol).

Regarding `CN(C)CC/C=C1\c2ccccc2Sc2ccc(Cl)cc21`, the T/C (dose: 12.5 mg/kg/injection, schedule: Q01DX005 (ip), vehicle: Klucel (hydroxypropylcellulose) (HPC)) was 107 % of control and 112 % of control; the T/C under setting [9] was 117 % of control and 120 % of control; the T/C under setting [10] was 117 % of control.

On to `C/C(=N\NC(N)=S)c1ccc2c(c1)Cc1cc(/C(C)=N/NC(N)=S)ccc1-2`, for which the T/C by setting is: (dose: 25.0 mg/kg/injection, schedule: Q04DX002 (ip), vehicle: saline with Tween-80) 99 % of control; (dose: 50.0 mg/kg/injection, schedule: Q04DX002 (ip), vehicle: saline with Tween-80) 92 % of control; under setting [1], 93 % of control; under setting [2], 95 % of control.

Take `COC(=O)c1nc(=S)[nH]c(C(=O)OC)c1C(=O)c1ccc(Cl)c(Cl)c1`: the T/C runs as follows: (dose: 60.0 mg/kg/injection, schedule: Q01DX005 (ip), vehicle: Klucel (hydroxypropylcellulose) (HPC)) 89 % of control; (dose: 120.0 mg/kg/injection, schedule: Q01DX005 (ip), vehicle: Klucel (hydroxypropylcellulose) (HPC)) 92 % of control; (dose: 240.0 mg/kg/injection, schedule: Q01DX005 (ip), vehicle: Klucel (hydroxypropylcellulose) (HPC)) 95 % of control.

On to `Cc1cccc(C)c1OCc1nnc(SCC(=O)O)n1-c1c(C)cccc1C`, for which the T/C reads like this: under setting [10], 102 % of control; under setting [11], 99 % of control; under setting [12], 93 % of control.

For `COC(=O)C1=C/CCCN(C(c2ccccc2)c2ccccc2)/C=C\1C(=O)OC`, the T/C by setting is: (dose: 100.0 mg/kg/injection, schedule: Q01DX001 (ip), vehicle: saline) 99 % of control; (dose: 200.0 mg/kg/injection, schedule: Q01DX001 (ip), vehicle: saline) 91 % of control; (dose: 400.0 mg/kg/injection, schedule: Q01DX001 (ip), vehicle: saline) 95 % of control.

In the case of `C=CCOP1(c2ccccc2)(c2ccccc2)NC(c2ccccc2)(c2ccccc2)C(C(=O)OC)=C1C(=O)OC`, the T/C reads like this: under setting [10], 90 % of control; under setting [11], 91 % of control; under setting [12], 92 % of control.

For `O=C1CCSC(=S)N1c1ccc(F)c(F)c1`, the T/C is 107 % of control (dose: 50.0 mg/kg/injection, schedule: Q01DX009 (ip), vehicle: suspension in saline); 92 % of control (dose: 100.0 mg/kg/injection, schedule: Q01DX009 (ip), vehicle: suspension in saline); 92 % of control (dose: 200.0 mg/kg/injection, schedule: Q01DX009 (ip), vehicle: suspension in saline).

For `c1ccc2c(c1)Cc1cc3ccccc3nc1-2`, the T/C by setting is: under setting [9], 94 % of control; (dose: 25.0 mg/kg/injection, schedule: Q01DX009 (ip), vehicle: Klucel (hydroxypropylcellulose) (HPC)) 94 % of control; under setting [10], 100 % of control; under setting [3], 91 % of control; under setting [11], 100 % of control; under setting [5], 106 % of control. For the same molecule, the T/C by setting is: under setting [12], 97 % of control; under setting [7], 100 % of control.

For the molecule `NC(N)=NCC(NS(=O)(=O)c1ccccc1)C(=O)O` (centres undefined), the T/C reads like this: under setting [3], 111 % of control; under setting [5], 111 % of control; under setting [7], 104 % of control.

In the case of `Nc1nc(-c2cc(-c3cccs3)nc(N)n2)cc(-c2cccs2)n1`, the T/C by setting is: (dose: 60.0 mg/kg/injection, schedule: Q01DX005 (ip), vehicle: saline) 97 % of control; (dose: 120.0 mg/kg/injection, schedule: Q01DX005 (ip), vehicle: saline) 100 % of control.

As for `C/C(=N\NC(=S)N1CCN(c2ccccc2)CC1)c1cnccn1`, the T/C is, setting by setting: (dose: 1.56 mg/kg/injection, schedule: Q01DX005 (ip), vehicle: saline with Tween-80) 103 % of control; (dose: 3.13 mg/kg/injection, schedule: Q01DX005 (ip), vehicle: saline with Tween-80) 105 % of control; (dose: 6.25 mg/kg/injection, schedule: Q01DX005 (ip), vehicle: saline with Tween-80) 111 % of control and 93 % of control; (dose: 12.5 mg/kg/injection, schedule: Q01DX005 (ip), vehicle: saline with Tween-80) 109 % of control.

On to `CC(C)=CBr`, for which the T/C by setting is: under setting [4], 105 % of control; under setting [6], 105 % of control; under setting [8], 110 % of control.

As for `O=c1c2sc3ccccc3c2ncn1/N=C/c1cccc(Cl)c1`, the T/C under setting [10] was 96 % of control, the T/C under setting [11] is 97 % of control and the T/C under setting [12] was 88 % of control.

In the case of `NCC1CCCCO1` (centres undefined), the T/C (dose: 50.0 mg/kg/injection, schedule: Q01DX005 (ip), vehicle: saline) is 98 % of control; the T/C (dose: 100.0 mg/kg/injection, schedule: Q01DX005 (ip), vehicle: saline) is 99 % of control; the T/C (dose: 200.0 mg/kg/injection, schedule: Q01DX005 (ip), vehicle: saline) is 91 % of control.

As to `C/C(=N\NC(N)=S)c1ccccc1`, the T/C reads like this: (dose: 3.12 mg/kg/injection, schedule: Q01DX009 (ip), vehicle: Klucel (hydroxypropylcellulose) (HPC)) 106 % of control; (dose: 6.25 mg/kg/injection, schedule: Q01DX009 (ip), vehicle: Klucel (hydroxypropylcellulose) (HPC)) 111 % of control; (dose: 12.5 mg/kg/injection, schedule: Q01DX009 (ip), vehicle: Klucel (hydroxypropylcellulose) (HPC)) 114 % of control.
